Results: ChEMBL document CHEMBL6182944, “Substrate Specificity of the Organic Cation Transporters MATE1 and MATE2K and Functional Overlap with OCT1 and OCT2” (J Med Chem, 2025)

Assays:
[1] = target: T1, MATE2-K (Homo sapiens, UniProt Q86VL8); test: in vitro
T1 sequence (Q86VL8 whole entry): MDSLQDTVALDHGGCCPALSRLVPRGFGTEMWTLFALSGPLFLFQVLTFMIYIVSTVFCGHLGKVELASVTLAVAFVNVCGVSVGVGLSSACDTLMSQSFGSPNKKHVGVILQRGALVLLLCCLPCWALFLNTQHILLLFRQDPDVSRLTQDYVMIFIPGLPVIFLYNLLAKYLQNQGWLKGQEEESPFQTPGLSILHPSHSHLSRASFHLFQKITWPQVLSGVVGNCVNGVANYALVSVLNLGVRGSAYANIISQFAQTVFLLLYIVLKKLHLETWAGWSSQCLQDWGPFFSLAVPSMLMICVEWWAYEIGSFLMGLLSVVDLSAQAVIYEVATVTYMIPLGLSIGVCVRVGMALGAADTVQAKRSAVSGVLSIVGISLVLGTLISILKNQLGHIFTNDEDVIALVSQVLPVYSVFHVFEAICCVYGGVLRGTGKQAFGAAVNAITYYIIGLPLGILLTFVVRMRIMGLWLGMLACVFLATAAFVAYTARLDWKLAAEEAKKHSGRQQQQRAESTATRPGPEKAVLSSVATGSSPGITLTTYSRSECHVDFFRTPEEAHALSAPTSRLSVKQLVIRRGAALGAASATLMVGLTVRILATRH

[2] = target: T2, MATE1 (Homo sapiens, UniProt Q96FL8); test: in vitro
T2 sequence (Q96FL8 whole entry): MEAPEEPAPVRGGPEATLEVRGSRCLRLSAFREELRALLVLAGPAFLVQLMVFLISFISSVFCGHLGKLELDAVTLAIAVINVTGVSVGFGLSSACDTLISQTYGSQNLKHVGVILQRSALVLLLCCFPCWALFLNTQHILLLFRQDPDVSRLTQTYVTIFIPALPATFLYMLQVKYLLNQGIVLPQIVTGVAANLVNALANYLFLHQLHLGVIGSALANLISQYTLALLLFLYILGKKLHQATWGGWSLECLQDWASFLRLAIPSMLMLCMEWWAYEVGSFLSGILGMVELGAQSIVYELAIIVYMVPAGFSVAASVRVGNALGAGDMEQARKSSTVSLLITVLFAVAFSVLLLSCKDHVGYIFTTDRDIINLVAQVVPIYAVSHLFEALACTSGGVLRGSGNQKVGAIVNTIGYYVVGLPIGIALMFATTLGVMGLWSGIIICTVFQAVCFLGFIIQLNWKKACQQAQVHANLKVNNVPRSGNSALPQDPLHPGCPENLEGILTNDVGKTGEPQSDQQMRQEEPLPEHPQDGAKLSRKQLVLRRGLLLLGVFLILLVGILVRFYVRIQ

[3] = HEK293 cells expressing MATE2-K

Structure (SMILES) | uptake ratio at 1 min, 2.5 µM [1, 3] | uptake ratio at 1 min, 2.5 µM ([2]; HEK293 cells expressing MATE1) | uptake ratio at 1 min, 2.5 µM ([1]; hek293) | uptake ratio at 1 min, 2.5 µM ([2]; hek293)
CC(=O)c1cc2cccc(OCC(O)CNC(C)C)c2o1 (stereo unspecified) [BEFUNOLOL] | < 2 | < 2 |  | 
C[N+](C)(C)CCO [CHOLINE] |  |  | < 2 | < 2
CNC(C)Cc1ccc2c(c1)OCO2 (stereo unspecified) [MIDOMAFETAMINE] | < 2 | < 2 |  | 
[H]/N=C(\N/C(=N/[H])Nc1ccc(Cl)cc1)NC(C)C [PROGUANIL] | > 2 | > 2 |  | 
NC(=O)C1(N2CCCCC2)CCN(CCCC(=O)c2ccc(F)cc2)CC1 [PIPAMPERONE] | < 2 | < 2 |  | 
CC1(C)N=C(N)N=C(N)N1c1ccc(Cl)cc1 [CYCLOGUANIL] | > 2 | > 2 |  | 
C[C@@H]1O[C@@]2(CS1)CN1CCC2CC1 | < 2 | < 2 |  | 
C1CCN2C[C@H]3C[C@H](CN4CCCC[C@@H]34)[C@H]2C1 | > 2 | > 2 |  | 
C[N+]12CCC(CC1)C(OC(=O)C(O)(c1ccccc1)c1ccccc1)C2 (stereo unspecified) | < 2 | > 2 |  | 
Cn1nnc2c(C(N)=O)ncn2c1=O [TEMOZOLOMIDE] | < 2 | < 2 |  | 
CCNCC(O)c1cccc(O)c1 (stereo unspecified) [ETILEFRINE] | > 2 | > 2 |  | 
Cc1ncc(C[n+]2csc(CCOP(=O)(O)O)c2C)c(N)n1 [MONOPHOSPHOTHIAMINE] | < 2 | < 2 |  | 
CN(C)CCc1c[nH]c2ccc(Cn3cncn3)cc12 [RIZATRIPTAN] | > 2 | > 2 |  | 
CC(C)[N+](C)(CCOC(=O)C1c2ccccc2Oc2ccccc21)C(C)C [PROPANTHELINE] | > 2 | > 2 |  | 
CC[C@@H]1C(=O)OC[C@@H]1Cc1cncn1C [PILOCARPINE] | < 2 | < 2 |  | 
COC(=O)[C@@H]1[C@H]2CC[C@@H](C[C@@H]1O)N2C | < 2 | < 2 |  | 
CCCC[N+]1(C)[C@@H]2C[C@@H](OC(=O)[C@H](CO)c3ccccc3)C[C@H]1[C@@H]1O[C@@H]12 (stereo partly specified) [BUTYLSCOPOLAMINE] | < 2 | > 2 |  | 
OCCN1CCN(CCCN2c3ccccc3Sc3ccc(C(F)(F)F)cc32)CC1 [FLUPHENAZINE] | < 2 | < 2 |  | 
CNCCc1ccccc1 | < 2 | < 2 |  | 
CNC(=C[N+](=O)[O-])NCCSCc1csc(CN(C)C)n1 [NIZATIDINE] | > 2 | > 2 |  | 
O=C(O)c1cccnc1 [NIACIN] |  |  | < 2 | < 2
CC(C)NCC(O)COc1cccc2[nH]ccc12 (stereo unspecified) [PINDOLOL] | < 2 | > 2 |  | 
CC(C)N(CCC(C(N)=O)(c1ccccc1)c1ccccn1)C(C)C (stereo unspecified) [DISOPYRAMIDE] | < 2 | < 2 |  | 
CC(C)(C)NCC(O)c1cc(O)cc(O)c1 (stereo unspecified) [TERBUTALINE] | > 2 | > 2 |  | 
CNCc1ccc(-c2[nH]c3cc(F)cc4c3c2CCNC4=O)cc1 [RUCAPARIB] | > 2 | > 2 |  | 
CNC(C)Cc1ccc(OC)cc1 (stereo unspecified) | < 2 | < 2 |  | 
CNCc1ccc(CSCCN/C(=C/[N+](=O)[O-])NC)o1 | > 2 | > 2 |  | 
CNC(=O)c1cccnc1 [NICOTINYL METHYLAMIDE] | > 2 | > 2 |  | 
